Test results published in patent publication US11395857B2, “Radiolabeled melanocortin 1 receptor-specific alpha-melanocyte-stimulating hormone analogues for imaging or therapy” (PROVINCIAL HEALTH SERVICES AUTHORITY, priority 2018, dated 2022).

Tests used:
[1] = In vivo stability in mouse urine at 1 h p.i. (radio-HPLC); parameters: species or system C57BL/6J mice
Method: All animal experiments were conducted in according to the guidelines established by Canadian Council on Animal Care and approved by Animal Ethics Committee of the University of British Columbia. Mice were housed under pathogen-free conditions and kept on twelve hours light and twelve hours dark cycle in the Animal Research Centre, BC Cancer Research Centre, Vancouver, Canada. C57BL/6J mice were anesthetized by inhalation with 2% isoflurane in 2.0 L/min of oxygen, and approximately 4-6 MBq of [^68Ga]Ga-CCZ01099 or [^68Ga]Ga-CCZ01048 was injected intravenously. The mice were allowed to recover and roam freely in their cages. At 1 h post-injection (p.i.), the mice were euthanized by CO2 inhalation and their urine was collected and analyzed on HPLC for metabolite using the conditions described above. In vivo urine stability of [^68Ga]Ga-CCZ01099 and [^68Ga]Ga-CCZ01048 were 34.0±10.4% and ≥98.0% (n≥3), respectively.
The in vivo stability tests in mouse urine were performed as described in Example 1. […] With systematic reduction in the number of N-methylations for the αMSH analogues, a decrease in in vivo stability was observed.

B16F10 mouse melanoma = assay: SPECT/CT imaging of mice bearing B16F10 mouse melanoma; assay type: in vivo, C57BL/6J mice; conditions: 24 h p.i.
Method: SPECT/CT imaging experiments were conducted using a preclinical U-SPECT-II/CT scanner (MILabs). For SPECT scans, each tumour-bearing mouse was injected with approximately 37 MBq of ^177Lu-labeled αMSH analogues via tail vein under anesthesia. After the injection, mice were allowed to recover and roam freely in their cages. At 1, 4, 24, and 120 h p.i., the mice were sedated again with 2% isoflurane inhalation and positioned in the scanner, and kept warm by a heating pad. A 3 min CT scan was conducted to acquire anatomical information, followed by a 60 min static emission scan in list mode with an extra ultrahigh-sensitivity multipinhole mouse collimator. The images were reconstructed using the ordered subset expectation maximization algorithm (4 iterations, 32 subsets) and a 1 mm post-processing Gaussian filter. The radioactivity in the SPECT scans were decay corrected to the injection time in the PMOD software, and converted to DICOM for quantitation and visualization in the Inveon Research Workplace software (Siemens). SPECT images of all six αMSH analogues radiolabeled with ^177Lu in mice bearing B16F10 mouse melanoma at 24 h p.i. are showing in FIG. 5. […] The sustained tumour uptake is particularly beneficial for radioligand therapy.

[2] = Biodistribution of 177Lu-labeled αMSH analogues in mice bearing SK-MEL-1 human melanoma; conditions: male, mouse, total radioactivity; for tissue to tissue ratio at 1 h: 1 h p.i.; for tissue to tissue ratio at 1 h / tissue to tissue ratio at 4 h / tissue to tissue ratio at 24 h / tissue to tissue ratio at 120 h: NRG mice, SK-MEL-1 melanoma; for tissue to tissue ratio at 4 h: 4 h p.i.; for tissue to tissue ratio at 24 h: 24 h p.i.; for tissue to tissue ratio at 120 h: 120 h p.i.
Method: The SK-MEL-1 human melanoma cell line (HTB-67) was obtained commercially from ATCC. SK-MEL-1 cells were cultured in Eagle's Minimum Essential Medium (StemCell Technologies) under the same conditions as described in Example 1. Immunodeficient NOD.Cg-Rag1tm1Mom I12rgtm1Wjl/SzJ (NRG) male mice were obtained from an in-house breeding colony at the BC Cancer Research Centre. For tumor implantation, male NRG mice were anesthetized by inhalation with 2% isoflurane, and 5 million SK-MEL-1 cells were inoculated subcutaneously on the right dorsal flank. Mice were used for imaging or biodistribution studies when the tumors reached 6-8 mm in diameter in 16-20 days.
Biodistribution studies were performed as described in Example 3.

[3] = NRG (NOD.Cg-Rag1tm1Mom I12rgtm1Wjl/SzJ), fat, iv
[4] = NRG (NOD.Cg-Rag1tm1Mom I12rgtm1Wjl/SzJ), seminal glands, iv
[5] = NRG (NOD.Cg-Rag1tm1Mom Il2rgtm1Wjl/SzJ), SK-MEL-1 tumour
[6] = NRG (NOD.Cg-Rag1tm1Mom Il2rgtm1Wjl/SzJ), adrenal glands
[7] = NRG (NOD.Cg-Rag1tm1Mom Il2rgtm1Wjl/SzJ), blood
[8] = NRG (NOD.Cg-Rag1tm1Mom Il2rgtm1Wjl/SzJ), bone
[9] = NRG (NOD.Cg-Rag1tm1Mom Il2rgtm1Wjl/SzJ), brain
[10] = NRG (NOD.Cg-Rag1tm1Mom Il2rgtm1Wjl/SzJ), heart
[11] = NRG (NOD.Cg-Rag1tm1Mom Il2rgtm1Wjl/SzJ), intestine
[12] = NRG (NOD.Cg-Rag1tm1Mom Il2rgtm1Wjl/SzJ), kidneys
[13] = NRG (NOD.Cg-Rag1tm1Mom Il2rgtm1Wjl/SzJ), liver
[14] = NRG (NOD.Cg-Rag1tm1Mom Il2rgtm1Wjl/SzJ), lungs
[15] = NRG (NOD.Cg-Rag1tm1Mom Il2rgtm1Wjl/SzJ), muscle
[16] = NRG (NOD.Cg-Rag1tm1Mom Il2rgtm1Wjl/SzJ), pancreas
[17] = NRG (NOD.Cg-Rag1tm1Mom Il2rgtm1Wjl/SzJ), spleen
[18] = NRG (NOD.Cg-Rag1tm1Mom Il2rgtm1Wjl/SzJ), stomach
[19] = NRG (NOD.Cg-Rag1tm1Mom Il2rgtm1Wjl/SzJ), testes
[20] = NRG (NOD.Cg-Rag1tm1Mom Il2rgtm1Wjl/SzJ), thyroid
[21] = NRG (NOD.Cg-Rag1tm1Mom Il2rgtm1Wjl/SzJ), tumour/blood
[22] = NRG (NOD.Cg-Rag1tm1Mom Il2rgtm1Wjl/SzJ), tumour/kidney
[23] = NRG (NOD.Cg-Rag1tm1Mom Il2rgtm1Wjl/SzJ), tumour/muscle
[24] = NRG (NOD.Cg-Rag1tm1Mom Il2rgtm1Wjl/SzJ), urine

## CCCC[C@H](NC(=O)CN1CCC(NC(=O)CN2CCN(CC(=O)O)CCN(CC(=O)O)CCN(CC(=O)O)CC2)CC1)C(=O)N[C@H]1CC(=O)NCCCC[C@@H](C(N)=O)N(C)C(=O)[C@H](Cc2c[nH]c3ccccc23)N(C)C(=O)[C@H](CCCNC(=N)N)N(C)C(=O)[C@@H](Cc2ccccc2)NC(=O)[C@H](Cc2c[nH]cn2)N(C)C1=O [^68Ga-labeled CCZ01099, metal not drawn]
[1]
  In vivo urine stability, intact tracer: 34.0±10.4%

## CCCC[C@H](NC(=O)CN1CCC(NC(=O)[C@H](CCCCNC(=O)CN2CCN(CC(=O)O)CCN(CC(=O)O)CCN(CC(=O)O)CC2)NC(=O)[C@H](CCC(=O)O)NC(=O)CCCc2ccc(I)cc2)CC1)C(=O)N[C@H]1CC(=O)NCCCC[C@@H](C(N)=O)N(C)C(=O)[C@H](Cc2c[nH]c3ccccc23)NC(=O)[C@H](CCCNC(=N)N)N(C)C(=O)[C@@H](Cc2ccccc2)NC(=O)[C@H](Cc2c[nH]cn2)NC1=O [^177Lu-labeled CCZ01118, metal not drawn]
B16F10 mouse melanoma
  Tumour visualization with SPECT imaging: clearly visualized
[2]; [3]
  tissue uptake at 1 h: 1.18 ± 0.08 %ID/g
  tissue uptake at 4 h: 0.45 ± 0.26 %ID/g
  tissue uptake at 24 h: 0.1 ± 0.05 %ID/g
  tissue uptake at 120 h: 0.08 ± 0.02 %ID/g
[2]; [4]
  tissue uptake at 1 h: 0.59 ± 0.08 %ID/g
  tissue uptake at 4 h: 1.53 ± 2.82 %ID/g
  tissue uptake at 24 h: 0.06 ± 0.01 %ID/g
  tissue uptake at 120 h: 0.03 ± 0.01 %ID/g
[2]; [5]
  tissue uptake at 1 h: 10.5 ± 3.29 %ID/g
  tissue uptake at 4 h: 14 ± 2.36 %ID/g
  tissue uptake at 24 h: 10.1 ± 2.13 %ID/g
  tissue uptake at 120 h: 4.8 ± 0.26 %ID/g
[2]; [6]
  tissue uptake at 1 h: 2.99 ± 2.15 %ID/g
  tissue uptake at 4 h: 1.21 ± 0.59 %ID/g
  tissue uptake at 24 h: 0.27 ± 0.13 %ID/g
  tissue uptake at 120 h: 0.3 ± 0.16 %ID/g
[2]; [7]
  tissue uptake at 1 h: 9.63 ± 0.78 %ID/g
  tissue uptake at 4 h: 2.46 ± 0.64 %ID/g
  tissue uptake at 24 h: 0.07 ± 0.03 %ID/g
  tissue uptake at 120 h: 0.02 %ID/g
[2]; [8]
  tissue uptake at 1 h: 1.1 ± 0.5 %ID/g
  tissue uptake at 4 h: 0.35 ± 0.08 %ID/g
  tissue uptake at 24 h: 0.15 ± 0.02 %ID/g
  tissue uptake at 120 h: 0.26 ± 0.39 %ID/g
[2]; [9]
  tissue uptake at 1 h: 0.17 ± 0.02 %ID/g
  tissue uptake at 4 h: 0.06 ± 0.01 %ID/g
  tissue uptake at 24 h: 0.01 %ID/g
  tissue uptake at 120 h: 0.01 %ID/g
[2]; [10]
  tissue uptake at 1 h: 2.5 ± 0.3 %ID/g
  tissue uptake at 4 h: 0.84 ± 0.23 %ID/g
  tissue uptake at 24 h: 0.14 ± 0.04 %ID/g
  tissue uptake at 120 h: 0.08 ± 0.02 %ID/g
[2]; [11]
  tissue uptake at 1 h: 1.42 ± 0.22 %ID/g
  tissue uptake at 4 h: 0.79 ± 0.5 %ID/g
  tissue uptake at 24 h: 0.19 ± 0.03 %ID/g
  tissue uptake at 120 h: 0.08 ± 0.01 %ID/g
[2]; [12]
  tissue uptake at 1 h: 13.4 ± 2.53 %ID/g
  tissue uptake at 4 h: 12.8 ± 2.29 %ID/g
  tissue uptake at 24 h: 6.48 ± 1.25 %ID/g
  tissue uptake at 120 h: 1.69 ± 0.13 %ID/g
[2]; [13]
  tissue uptake at 1 h: 6.91 ± 1.09 %ID/g
  tissue uptake at 4 h: 5.77 ± 1.62 %ID/g
  tissue uptake at 24 h: 4.36 ± 1.11 %ID/g
  tissue uptake at 120 h: 2.42 ± 0.33 %ID/g
[2]; [14]
  tissue uptake at 1 h: 6.59 ± 1.06 %ID/g
  tissue uptake at 4 h: 2.5 ± 0.67 %ID/g
  tissue uptake at 24 h: 0.86 ± 0.87 %ID/g
  tissue uptake at 120 h: 0.15 ± 0.12 %ID/g
[2]; [15]
  tissue uptake at 1 h: 0.98 ± 0.12 %ID/g
  tissue uptake at 4 h: 0.36 ± 0.11 %ID/g
  tissue uptake at 24 h: 0.05 ± 0.01 %ID/g
  tissue uptake at 120 h: 0.02 ± 0.01 %ID/g
[2]; [16]
  tissue uptake at 1 h: 1.4 ± 0.24 %ID/g
  tissue uptake at 4 h: 0.49 ± 0.08 %ID/g
  tissue uptake at 24 h: 0.1 ± 0.02 %ID/g
  tissue uptake at 120 h: 0.05 %ID/g
[2]; [17]
  tissue uptake at 1 h: 3.06 ± 0.53 %ID/g
  tissue uptake at 4 h: 1.45 ± 0.33 %ID/g
  tissue uptake at 24 h: 1.2 ± 0.56 %ID/g
  tissue uptake at 120 h: 0.98 ± 0.29 %ID/g
[2]; [18]
  tissue uptake at 1 h: 0.56 ± 0.1 %ID/g
  tissue uptake at 4 h: 0.44 ± 0.25 %ID/g
  tissue uptake at 24 h: 0.36 ± 0.2 %ID/g
  tissue uptake at 120 h: 0.13 ± 0.05 %ID/g
[2]; [19]
  tissue uptake at 1 h: 1.58 ± 0.32 %ID/g
  tissue uptake at 4 h: 0.84 ± 0.2 %ID/g
  tissue uptake at 24 h: 0.22 ± 0.04 %ID/g
  tissue uptake at 120 h: 0.16 ± 0.04 %ID/g
[2]; [20]
  tissue uptake at 1 h: 4.03 ± 0.45 %ID/g
  tissue uptake at 4 h: 3.11 ± 0.46 %ID/g
  tissue uptake at 24 h: 2.49 ± 0.64 %ID/g
  tissue uptake at 120 h: 1.83 ± 0.21 %ID/g
[2]; [21]
  tissue to tissue ratio at 1 h: 1.08 ± 0.3
  tissue to tissue ratio at 4 h: 5.84 ± 0.96
  tissue to tissue ratio at 24 h: 165 ± 50.1
  tissue to tissue ratio at 120 h: 246 ± 28.6
[2]; [22]
  tissue to tissue ratio at 1 h: 0.77 ± 0.12
  tissue to tissue ratio at 4 h: 1.1 ± 0.08
  tissue to tissue ratio at 24 h: 1.55 ± 0.1
  tissue to tissue ratio at 120 h: 2.85 ± 0.22
[2]; [23]
  tissue to tissue ratio at 1 h: 10.6 ± 2.98
  tissue to tissue ratio at 4 h: 41.5 ± 9.8
  tissue to tissue ratio at 24 h: 201 ± 10.4
  tissue to tissue ratio at 120 h: 269 ± 79.1
[2]; [24]
  excreta dose per gram or mL at 1 h: 376 ± 154 %ID/g
  excreta dose per gram or mL at 4 h: 154 ± 39.2 %ID/g
  excreta dose per gram or mL at 24 h: 5.39 ± 1.23 %ID/g
  excreta dose per gram or mL at 120 h: 1.12 ± 0.38 %ID/g
